Our source for the IC50 values is patent publication US20240262819A1, “NOVEL COMPOUNDS HAVING INHIBITORY ACTIVITY AGAINST GLUCOSYLCERAMIDE SYNTHASE OR PHARMACEUTICALLY ACCEPTABLE SALT THEREOF, PROCESSES FOR PREPARING THE SAME, AND PHARMACEUTICAL COMPOSITIONS COMPRISING THE SAME” (YUHAN CORPORATION, priority 2021, published 2024).

Assay [1] addresses glucosylceramide synthase (GCS) (Homo sapiens (Human), UniProt Q16739). Briefly: Evaluation of inhibitory activities against GCS (A549 cell lysate, NBD C6-ceramide, HPLC). It counts as biochemical. As to the method: The inhibitory activities of the compounds of the present invention against GCS were evaluated, as follows, according to the method described in the known literature (Hayashi Y et al., A sensitive and reproducible assay to measure the activity of glucosylceramide synthase and lactosylceramide synthase using HPLC and fluorescent substrates, Analytical Biochemistry 345 (2005) 181-186). Ibiglustat, known as a GCS inhibitor, was used as a control.
After the cells attached to the culture dish were washed with phosphate buffered saline (PBS), the cells were scraped off with a cell scraper and then centrifuged (4000 rpm, 3 min, 4 °C) to collect the cells in a 50 ml tube. The cell pellets were suspended in a lysis buffer (50 mM HEPES, pH 7.3, containing 1× the protease/phosphatase inhibitor cocktail), lysed by sonication, and then the lysate was centrifuged (13000 rpm, 10 min, 4° C.). The obtained supernatant was used for the quantitative analysis of proteins. The amount of proteins was measured using the BCA protein assay kit, using bovine serum albumin as a standard.
Enzymatic reactions were initiated by sequentially adding the following reaction materials to a 96 deep-well plate. Thereafter, the enzymatic reactions were performed at 37° C. for 90 minutes.
The enzymatic reactions were stopped by adding 100 μl of chloroform/methanol (2:1, v/v). […] The lower layer (50 μl) was transferred to a new 96 deep-well plate and dried with a reduced concentrator.
Lipids were dissolved in 100 μl of isopropyl alcohol/n-hexane/H2O (55:44:1, v/v/v) and then transferred to a glass vial for HPLC (Agilent, 8004-HP-H/i3u). The sample (100 μl) was automatically loaded onto a normal-phase column (Intersil SIL 150A-5, 4.6×250 mm, GL Sciences, Japan) and then eluted at a flow rate of 2.0 ml/min with isopropyl alcohol/n-hexane/H2O (55:44:1, v/v/v). The fluorescence thereof was measured with a fluorescence detector (Agilent, 1260 FLD Spectra), using 470 nm and 530 nm as excitation and emission wavelengths, respectively.
Data analysis was performed by the following equations.
% Area (Sample)=Area (GlcCer)/[Area (Cer)+Area (GlcCer)]×100%
GCS activity=[Area (Sample)−Area (ibiglustat)]/[Area (DMSO)−Area (ibiglustat)]×100
The obtained % GCS activity data was analyzed with the software GraphPad Prism (Ver 5.01) to calculate the IC50 values.

Assay [2] deals with GM1 production in Jurkat cells. Briefly: cells. It counts as cell-based.
[3] abbreviates: % GCS activity, A549 cell lysate, 37° C. for 90 minutes, read-out: IC50.

pIC50: −log10 of the molar value. Like-named read-outs stand apart in the source and are kept apart here.

Sequence of glucosylceramide synthase (GCS) (Q16739 whole entry): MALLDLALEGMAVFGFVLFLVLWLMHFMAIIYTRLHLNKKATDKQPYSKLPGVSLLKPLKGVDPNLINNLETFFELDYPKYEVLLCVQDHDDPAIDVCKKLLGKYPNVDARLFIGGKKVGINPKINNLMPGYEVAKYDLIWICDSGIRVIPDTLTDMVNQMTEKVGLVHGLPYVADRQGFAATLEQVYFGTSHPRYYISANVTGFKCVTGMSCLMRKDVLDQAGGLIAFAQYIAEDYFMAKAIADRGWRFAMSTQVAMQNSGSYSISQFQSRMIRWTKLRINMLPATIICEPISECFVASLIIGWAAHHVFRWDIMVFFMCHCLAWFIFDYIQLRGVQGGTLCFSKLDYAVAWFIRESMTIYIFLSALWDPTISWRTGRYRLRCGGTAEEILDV

Broadly, the pIC50 is the IC50 on a negative log10 scale, so that one unit is a factor of ten. In the case of `CCc1ccc(-c2ccc3c(c2)CCC(C)(C)[C@H]3NC(=O)O[C@@H]2CN3CCC2CC3)cc1F` [Example 169, (S)-quinuclidin-3-yl((R)-6-(4-ethyl-3-fluorophenyl)-2,2-dimethyl-1,2,3,4-tetrahydronaphthalen-1-yl)carbamate], the pIC50 in assay [1] is 9.85; in assay [2] (Homo sapiens, Jurkat, 72 h) it was 8.77.

With `CC(C)COc1ccc(-c2cc3c(cc2F)[C@H](NC(=O)O[C@@H]2CN4CCC2CC4)C(C)(C)CC3)cc1` [Example 179, (S)-quinuclidin-3-yl((R)-7-fluoro-6-(4-isobutoxyphenyl)-2,2-dimethyl-1,2,3,4-tetrahydronaphthalen-1-yl)carbamate], the pIC50 in assay [1] is 9.72; in assay [2] (Homo sapiens, Jurkat, 72 h) it was 9.66.

On to `CCCCOc1cccc(-c2ccc3c(c2)CCC(C)(C)[C@H]3NC(=O)O[C@@H]2CN3CCC2CC3)c1` [Example 155, (S)-quinuclidin-3-yl((R)-6-(3-butoxyphenyl)-2,2-dimethyl-1,2,3,4-tetrahydronaphthalen-1-yl)carbamate], for which the pIC50 in assay [1] is 9.41; in assay [2] (Homo sapiens, Jurkat, 72 h), 9.15.

With `CC(C)Oc1cc(-c2cc3c(cc2F)[C@H](NC(=O)O[C@@H]2CN4CCC2CC4)C(C)(C)C3)ccc1Cl` [Example 111, (S)-quinuclidin-3-yl((R)-5-(4-chloro-3-isopropoxyphenyl)-6-fluoro-2,2-dimethyl-2,3-dihydro-1H-inden-1-yl)carbamate], the pIC50 in assay [1] is 8.15; in assay [2] (Homo sapiens, Jurkat, 72 h), 7.12.

As for `CC1(C)Cc2cc(-c3cc(F)cc(OCC(F)(F)F)c3)c(F)cc2[C@@H]1NC(=O)O[C@@H]1CN2CCC1CC2` [Example 110, (S)-quinuclidin-3-yl((R)-6-fluoro-5-(3-fluoro-5-(2,2,2-trifluoroethoxy)phenyl)-2,2-dimethyl-2,3-dihydro-1H-inden-1-yl)carbamate], the pIC50 in assay [1] is 8.98; in assay [2] (Homo sapiens, Jurkat, 72 h), 7.55.

Regarding `Cc1cc(-c2cc3c(cc2F)[C@H](NC(=O)O[C@@H]2CN4CCC2CC4)C(C)(C)C3)ccc1OC(C)C` [Example 94, (S)-quinuclidin-3-yl((R)-6-fluoro-5-(4-isopropoxy-3-methylphenyl)-2,2-dimethyl-2,3-dihydro-1H-inden-1-yl)carbamate], the pIC50 in assay [1] was 9.28; in assay [2] (Homo sapiens, Jurkat, 72 h) it was 7.92.

On to `CC(C)Cc1cccc(-c2cc3c(cc2F)[C@H](NC(=O)O[C@@H]2CN4CCC2CC4)C(C)(C)CC3)c1` [Example 189, (S)-quinuclidin-3-yl((R)-7-fluoro-6-(3-isobutylphenyl)-2,2-dimethyl-1,2,3,4-tetrahydronaphthalen-1-yl)carbamate], for which the pIC50 in assay [1] is 8.98; in assay [2] (Homo sapiens, Jurkat, 72 h) it was 8.22.

Turning to `CCCOc1ccc(-c2cc3c(cc2OCC)[C@H](NC(=O)O[C@@H]2CN4CCC2CC4)C(C)(C)C3)cc1` [Example 133, (S)-quinuclidin-3-yl((R)-6-ethoxy-2,2-dimethyl-5-(4-propoxyphenyl)-2,3-dihydro-1H-inden-1-yl) carbamate], the values for the negative logarithm of the IC50 (pIC50) in assay [1] (setting [3]) and in assay [2] (read-out: IC50) were 9.30 and 8.58, respectively.

As to `CCCCOc1c(C)cc(-c2ccc3c(c2)CCC(C)(C)[C@H]3NC(=O)O[C@@H]2CN3CCC2CC3)cc1C` [Example 152, (S)-quinuclidin-3-yl((R)-6-(4-butoxy-3,5-dimethylphenyl)-2,2-dimethyl-1,2,3,4-tetrahydronaphthalen-1-yl)carbamate], the pIC50 in assay [1] was 8.78; in assay [2] (Homo sapiens, Jurkat, 72 h) it was 8.08.

Regarding `CC(C)Oc1c(F)cc(-c2ccc3c(c2)CC(C)(C)[C@H]3NC(=O)O[C@@H]2CN3CCC2CC3)cc1F` [Example 37, (S)-quinuclidin-3-yl((R)-5-(3,5-difluoro-4-isopropoxyphenyl)-2,2-dimethyl-2,3-dihydro-1H-inden-1-yl)carbamate], the pIC50 in assay [1] is 8.71; in assay [2] (Homo sapiens, Jurkat, 72 h), 8.66.

In the case of “(S)-quinuclidin-3-yl((R)-2,2-dimethyl-6-(3-propylphenyl)-1,2,3,4-tetrahydronaphthalen-1-yl) carbamate [Example 156]”, the pIC50 in assay [1] (setting [3]) is 9.21; in assay [2] (read-out: IC50), 8.72.

Turning to `CCOc1cccc(-c2ccc3c(c2)CCC(C)(C)[C@H]3NC(=O)O[C@@H]2CN3CCC2CC3)c1` [Example 154, (S)-quinuclidin-3-yl((R)-6-(3-ethoxyphenyl)-2,2-dimethyl-1,2,3,4-tetrahydronaphthalen-1-yl)carbamate], the pIC50 is 9.42 in assay [1] and 8.54 in assay [2] (Homo sapiens, Jurkat, 72 h).

On to `CCCOc1ccc(-c2cc3c(cc2F)[C@H](NC(=O)O[C@@H]2CN4CCC2CC4)C(C)(C)C3)cc1F` [Example 91, (S)-quinuclidin-3-yl((R)-6-fluoro-5-(3-fluoro-4-propoxyphenyl)-2,2-dimethyl-2,3-dihydro-1H-inden-1-yl)carbamate], for which the pIC50 was 9.48 in assay [1] and 7.97 in assay [2] (Homo sapiens, Jurkat, 72 h).

With `CCOc1cc2c(cc1-c1ccc(CC)cc1)CC(C)(C)[C@H]2NC(=O)O[C@@H]1CN2CCC1CC2` [Example 127, (S)-quinuclidin-3-yl((R)-6-ethoxy-5-(4-ethylphenyl)-2,2-dimethyl-2,3-dihydro-1H-inden-1-yl)carbamate], the pIC50 in assay [1] is 8.74; in assay [2] (Homo sapiens, Jurkat, 72 h) it was 8.10.

For the molecule `CC(C)COc1cc(Cl)cc(-c2ccc3c(c2)CC(C)(C)[C@H]3NC(=O)O[C@@H]2CN3CCC2CC3)c1` [Example 53, (S)-quinuclidin-3-yl((R)-5-(3-chloro-5-isobutoxyphenyl)-2,2-dimethyl-2,3-dihydro-1H-inden-1-yl)carbamate], the pIC50 in assay [1] was 9.17; in assay [2] (Homo sapiens, Jurkat, 72 h), 8.39.

Turning to `CC(C)Oc1cc(-c2ccc3c(c2)CC(C)(C)[C@H]3NC(=O)O[C@@H]2CN3CCC2CC3)ccc1Cl` [Example 52, (S)-quinuclidin-3-yl((R)-5-(4-chloro-3-isopropoxyphenyl)-2,2-dimethyl-2,3-dihydro-1H-inden-1-yl)carbamate], the pIC50 in assay [1] was 8.08; in assay [2] (Homo sapiens, Jurkat, 72 h) it was 7.44.

Consider `CC(C)(C)Oc1ccc(-c2ccc3c(c2)CC(C)(C)[C@H]3NC(=O)O[C@@H]2CN3CCC2CC3)cc1` [Example 41, (S)-quinuclidin-3-yl((R)-5-(4-(tert-butoxy)phenyl)-2,2-dimethyl-2,3-dihydro-1H-inden-1-yl)carbamate], for which the pIC50 is 9.05 in assay [1] and 7.87 in assay [2] (Homo sapiens, Jurkat, 72 h).

In the case of `CCCOc1ccc(-c2cc3c(cc2C)[C@H](NC(=O)O[C@@H]2CN4CCC2CC4)C(C)(C)C3)cc1` [Example 121, (S)-quinuclidin-3-yl((R)-2,2,6-trimethyl-5-(4-propoxyphenyl)-2,3-dihydro-1H-inden-1-yl)carbamate], the pIC50 is 9.55 in assay [1] and 8.55 in assay [2] (Homo sapiens, Jurkat, 72 h).

`CC(C)Oc1c(F)cc(-c2cc3c(cc2F)[C@H](NC(=O)O[C@@H]2CN4CCC2CC4)C(C)(C)C3)cc1F` [Example 97, (S)-quinuclidin-3-yl((R)-5-(3,5-difluoro-4-isopropoxyphenyl)-6-fluoro-2,2-dimethyl-2,3-dihydro-1H-inden-1-yl)carbamate]: the pIC50 was 8.97 in assay [1] and 7.89 in assay [2] (Homo sapiens, Jurkat, 72 h).

As for `CCCOc1cccc(-c2ccc3c(c2)CCC(C)(C)[C@H]3NC(=O)O[C@@H]2CN3CCC2CC3)c1` [Example 159, (S)-quinuclidin-3-yl((R)-2,2-dimethyl-6-(3-propoxyphenyl)-1,2,3,4-tetrahydronaphthalen-1-yl)carbamate], the pIC50 is 8.37 in assay [1] and 8.77 in assay [2] (Homo sapiens, Jurkat, 72 h).
